Laboratory results reported in ChEMBL document CHEMBL1201862, “PubChem BioAssay data set” (2004).
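Test compounds were applied to cells in 96-well plates for 48 hours at 5 doses. GI50 = concentration required for 50% inhibition of growth.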 Calls of active or inactive are those of the source. Cut-off read from the data, not from the text of the source: active = GI50 up to about 1.1 µM and inactive = higher.

Assays:
Assay in all cases: NCI anticancer screen, dose series, 48 h
[1] = system: DLD-1
[2] = system: DMS-273
[3] = system: HOP-18
[4] = system: KM-20L2
[5] = system: LXFL 529
[6] = system: M19-MEL
[7] = system: RXF 631
[8] = system: SNB-78
[9] = system: XF498

Row | SMILES | GI50 [1] | GI50 [2] | GI50 [3] | GI50 [4] | GI50 [5] | GI50 [6] | GI50 [7] | GI50 [8] | GI50 [9]
1 | CCCCCCCCCCCCCCCC(=O)NCC(OCC)OCC | > 100 µM (inactive) | > 100 µM (inactive) | > 100 µM (inactive) | > 100 µM (inactive) | > 100 µM (inactive) | > 100 µM (inactive) | > 100 µM (inactive) | > 100 µM (inactive) | > 100 µM (inactive)
2 | CC(=O)OC(C)(C)/C=C/C(=O)[C@](C)(O)[C@H]1[C@H](O)C[C@@]2(C)[C@@H]3CC=C4[C@@H](C[C@H](O)[C@H](O)C4(C)C)[C@]3(C)C(=O)C[C@]12C | 0.274 µM (active) | 0.421 µM (active) | 1.05 µM (active) | 0.513 µM (active) | 0.347 µM (active) | 0.515 µM (active) | 0.679 µM (active) | 0.453 µM (active) | 0.422 µM (active)
3 | CC(C)(C)N/N=C(\C(=O)Nc1nnc(S)[nH]1)C1C(=O)Nc2ccccc2[S+]1[O-] (centres undefined) | > 100 µM (inactive) | > 100 µM (inactive) | > 100 µM (inactive) | > 100 µM (inactive) | > 100 µM (inactive) | > 100 µM (inactive) | > 100 µM (inactive) | > 100 µM (inactive) | > 100 µM (inactive)
4 | N#C/N=C1\NC(Cc2ccccc2)C(=O)N1CCc1c[nH]c2ccccc12 (centres undefined) | 33.9 µM (inactive) | 27.7 µM (inactive) |  |  | 30.1 µM (inactive) | 30.1 µM (inactive) |  | 21.8 µM (inactive) | 27.4 µM (inactive)
5 | CCOC(=O)c1nn2c(nc1=O)sc1ccc3ccccc3c12 | > 100 µM (inactive) | > 100 µM (inactive) | > 100 µM (inactive) | > 100 µM (inactive) | > 100 µM (inactive) | > 100 µM (inactive) |  | > 100 µM (inactive) | 
6 | O=C(NC(=O)c1cc2cc(Br)cc(Br)c2oc1=O)Oc1ccccc1 | > 100 µM (inactive) | > 100 µM (inactive) | > 100 µM (inactive) | > 100 µM (inactive) | > 100 µM (inactive) | > 100 µM (inactive) |  | > 100 µM (inactive) | 37.4 µM (inactive)
7 | [O-][S+]1C(=c2ccc(=C3Sc4ccccc4S3)cc2)Sc2ccccc21 (centres undefined) | 27.4 µM (inactive) | 18.9 µM (inactive) | > 100 µM (inactive) | 17.3 µM (inactive) | 51.2 µM (inactive) | 19.7 µM (inactive) |  | 53.3 µM (inactive) | 
8 | COc1ccc(C2S/C(=C\c3ccccc3)C(=O)N2NC(=O)Cc2ccccc2)cc1 (centres undefined) | > 100 µM (inactive) | > 100 µM (inactive) | > 100 µM (inactive) |  | > 100 µM (inactive) | > 100 µM (inactive) |  |  | 
9 | Cc1cccc(C(C)(C)C)c1NC(=O)CC1C(=O)Nc2ccccc2S1(=O)=O (centres undefined) | 5.5 µM (inactive) | 4.25 µM (inactive) |  | 9.29 µM (inactive) | 12 µM (inactive) | 12.4 µM (inactive) |  | 8.24 µM (inactive) | 11.1 µM (inactive)
10 | COC(=O)[C@H]1COC(=S)N1C(=O)[C@@H](C)[C@H](O)C(C)C | > 100 µM (inactive) | > 100 µM (inactive) | > 100 µM (inactive) | > 100 µM (inactive) | > 100 µM (inactive) | > 100 µM (inactive) | > 100 µM (inactive) | > 100 µM (inactive) | > 100 µM (inactive)
11 | O=C(CCc1nnc(S)[nH]1)Nc1cc(Cl)ccc1Cl | > 100 µM (inactive) | > 100 µM (inactive) | > 100 µM (inactive) | > 100 µM (inactive) | > 100 µM (inactive) | > 100 µM (inactive) | > 100 µM (inactive) |  | 
12 | COC(=O)C(C(=O)C(=O)Nc1ccc(N)cc1[N+](=O)[O-])c1nc2ccc(Cl)cc2nc1O (centres undefined) | > 100 µM (inactive) | > 100 µM (inactive) | 72.3 µM (inactive) | > 100 µM (inactive) |  | > 100 µM (inactive) |  | > 100 µM (inactive) | 70.8 µM (inactive)
13 | C[C@]12CCc3nonc3C1CC[C@@H]1C2CC[C@]2(C)NC(=O)CCC12 (some centres undefined) |  | > 100 µM (inactive) | > 100 µM (inactive) | > 100 µM (inactive) | > 100 µM (inactive) | > 100 µM (inactive) | > 100 µM (inactive) | > 100 µM (inactive) | > 100 µM (inactive)
14 | O=C(CC1Sc2ccccc2NC1=O)Nc1cc(Cl)ccc1Cl (centres undefined) | > 100 µM (inactive) | > 100 µM (inactive) |  | > 100 µM (inactive) | > 100 µM (inactive) | > 100 µM (inactive) | > 100 µM (inactive) | > 100 µM (inactive) | 
15 | COC(=O)C(c1n[nH]c2ccccc12)C(C(=O)OC)c1n[nH]c2ccccc12 (centres undefined) | 36.3 µM (inactive) |  | 59.2 µM (inactive) | > 100 µM (inactive) | 26.2 µM (inactive) | > 100 µM (inactive) | > 100 µM (inactive) | 38.1 µM (inactive) | 41.8 µM (inactive)
16 | Nc1ccc(C(c2ccccc2)(c2ccccc2)c2ccccc2)cc1 | 95.9 µM (inactive) | 50.1 µM (inactive) |  |  | 37.1 µM (inactive) | 55.8 µM (inactive) | 47 µM (inactive) | 34.4 µM (inactive) | 4.24 µM (inactive)
17 | O=C1c2ccccc2-c2ccccc2C(=O)C1(Br)Br | 6.75 µM (inactive) | 15.6 µM (inactive) | 13.4 µM (inactive) | 16.9 µM (inactive) | 7.96 µM (inactive) | 8.69 µM (inactive) |  | 8.11 µM (inactive) | 
18 | COc1cc(C2c3cc4c(cc3[C@H](NC(=O)c3cccs3)C3COC(=O)[C@H]23)OCO4)cc(OC)c1OC (some centres undefined) | 0.0297 µM (active) | 0.0188 µM (active) | > 100 µM (inactive) | 0.0199 µM (active) | 0.0296 µM (active) |  |  | > 100 µM (inactive) | 
19 | COc1ccc2c(c1)CN1CCc3c(cc(OC)c(OC)c3OC)C1C2 (centres undefined) | > 100 µM (inactive) | > 100 µM (inactive) | > 100 µM (inactive) | > 100 µM (inactive) | 39.4 µM (inactive) | > 100 µM (inactive) |  | > 100 µM (inactive) | 38.7 µM (inactive)
20 | Cc1nc(N)nc(N)c1-c1ccc(Cl)c(Cl)c1 [METOPRINE] | 0.427 µM (active) | 0.157 µM (active) | 25.8 µM (inactive) | 0.94 µM (active) | 0.404 µM (active) | 2.36 µM (inactive) |  | 26.3 µM (inactive) | 34.8 µM (inactive)
